Data as given in patent publication US9296769B2, “Tenofovir alafenamide hemifumarate” (Gilead Sciences, Inc., priority 2011, dated 2016).
Read-outs that look alike come from different tables or passages of the source.

Columns and labels:
[1] = Source text: Chemical stability of the hemifumarate form of tenofovir alafenamide was compared with the monofumarate form. […] Conditions evaluated include temperature, relative humidity (RH), and the open or closed state of the container cap.
[2] = for Thermodynamic stability: solvents such as ACN, toluene, MTBE, acetone, THF, 2-methyl THF
[3] = remark: listed apart in the source
Description: DVS analysis was conducted using 4.951 mg of tenofovir alafenamide hemifumarate. The material was kept at 25° C. in nitrogen at humidities ranging from 10% to 90% relative humidity; each step was equilibrated for 120 minutes.

[4] = 40° C./75% RH Cap Closed, 0 weeks
[5] = 40° C./75% RH Cap Closed, 1 week
[6] = 40° C./75% RH Cap Closed, 2 weeks
[7] = 40° C./75% RH Cap Closed, 4 weeks
[8] = 40° C./75% RH Cap Closed, 8 weeks
[9] = 40° C./75% RH Cap Open, 0 weeks
[10] = 40° C./75% RH Cap Open, 2 weeks
[11] = 40° C./75% RH Cap Open, 4 weeks
[12] = 40° C./75% RH Cap Open, 8 weeks

CC(C)OC(=O)[C@H](C)N[P@](=O)(CO[C@H](C)Cn1cnc2c(N)ncnc21)Oc1ccccc1 [Hemifumarate form, 9-[(R)-2-[[(S)-[[(S)-1-(isopropoxycarbonyl)ethyl]amino]phenoxyphosphinyl]methoxy]propyl]adenine]
% TA Area Normalized [1, 4]: 98.4%
% Total Deg. Products [1, 4]: 0.05%
% TA Area Normalized [1, 5]: 98.4%
% Total Deg. Products [1, 5]: 0.14%
% TA Area Normalized [1, 6]: 98.5%
% Total Deg. Products [1, 6]: 0.14%
% TA Area Normalized [1, 7]: 98.4%
% Total Deg. Products [1, 7]: 0.25%
% TA Area Normalized [1, 8]: 98.0%
% Total Deg. Products [1, 8]: 0.49%
% TA Area Normalized [1, 9]: 98.4%
% Total Deg. Products [1, 9]: 0.05%
% TA Area Normalized ([1]; 40° C./75% RH Cap Open, 1 week): 98.5%
% Total Deg. Products ([1]; 40° C./75% RH Cap Open, 1 week): 0.15%
% TA Area Normalized [1, 10]: 98.5%
% Total Deg. Products [1, 10]: 0.14%
% TA Area Normalized [1, 11]: 98.4%
% Total Deg. Products [1, 11]: 0.26%
% TA Area Normalized [1, 12]: 98.1%
% Total Deg. Products [1, 12]: 0.50%
% TA Area Normalized ([1]; 70° C. Cap Closed, 0 weeks): 98.4%
% Total Deg. Products ([1]; 70° C. Cap Closed, 0 weeks): 0.05%
% TA Area Normalized ([1]; 70° C. Cap Closed, 2 weeks): 98.5%
% Total Deg. Products ([1]; 70° C. Cap Closed, 2 weeks): 0.22%
% TA Area Normalized ([1]; 70° C. Cap Closed, 4 weeks): 98.4%
% Total Deg. Products ([1]; 70° C. Cap Closed, 4 weeks): 0.33%
Thermodynamic stability ([2]; ethyl acetate, listed as tenofovir alafenamide hemifumarate): thermodynamically stable in most solvents
Hygroscopicity ([3]; 25° C. in nitrogen, 10% to 90% relative humidity): nonhygroscopic
Water absorbed ([3]; 25° C., relative humidity of 90%): 0.65%

CC(C)OC(=O)[C@H](C)N[P@](=O)(CO[C@H](C)Cn1cnc2c(N)ncnc21)Oc1ccccc1 [Monofumarate form, 9-[(R)-2-[[(S)-[[(S)-1-(isopropoxycarbonyl)ethyl]amino]phenoxyphosphinyl]methoxy]propyl]adenine]
% TA Area Normalized [1, 4]: 97.1%
% Total Deg. Products [1, 4]: 0.69%
% TA Area Normalized [1, 5]: 97.0%
% Total Deg. Products [1, 5]: 0.87%
% TA Area Normalized [1, 6]: 96.6%
% Total Deg. Products [1, 6]: 1.18%
% TA Area Normalized [1, 7]: 96.4%
% Total Deg. Products [1, 7]: 1.49%
% TA Area Normalized [1, 8]: 95.4%
% Total Deg. Products [1, 8]: 2.36%
% TA Area Normalized [1, 9]: 97.1%
% Total Deg. Products [1, 9]: 0.69%
% TA Area Normalized ([1]; 40° C./75% RH Cap Open, 1 week): 96.9%
% Total Deg. Products ([1]; 40° C./75% RH Cap Open, 1 week): 0.90%
% TA Area Normalized [1, 10]: 96.6%
% Total Deg. Products [1, 10]: 1.10%
% TA Area Normalized [1, 11]: 96.2%
% Total Deg. Products [1, 11]: 1.67%
% TA Area Normalized [1, 12]: 95.0%
% Total Deg. Products [1, 12]: 2.74%
% TA Area Normalized ([1]; 70° C. Cap Closed, 0 weeks): 97.1%
% Total Deg. Products ([1]; 70° C. Cap Closed, 0 weeks): 0.69%
% TA Area Normalized ([1]; 70° C. Cap Closed, 2 weeks): 96.2%
% Total Deg. Products ([1]; 70° C. Cap Closed, 2 weeks): 1.83%
% TA Area Normalized ([1]; 70° C. Cap Closed, 4 weeks): 93.3%
% Total Deg. Products ([1]; 70° C. Cap Closed, 4 weeks): 4.78%
Form conversion when suspended in solvent ([2]; ACN, ethyl acetate, MTBE and acetone): partially converts to the hemifumarate form
Form conversion when suspended in solvent ([2]; THF and 2-methyl THF): fully converts to the hemifumarate form
Thermodynamic stability ([2]; ethyl acetate): not thermodynamically stable
